Assay: Evaluation of stability in liver microsome
Conditions: mouse liver microsome 0.25 mg/mL, 1 μM test compound, 37° C. for 30 minutes

Compound	Remaining (%)
COCc1ccc(NC(=O)c2c(-c3ccc(CO)nc3)n(C3(C)CC3)c3ncnc(N)c23)cc1 [Example 179, 4-amino-6-(6-(hydroxymethyl)pyridin-3-yl)-N-(4-(methoxymethyl)phenyl)-7-(1-methylcyclopropyl)-7H-pyrrolo[2,3-d]pyrimidine-5-carboxamide]	85
COCc1ccc(NC(=O)c2c(-c3ccc(O)cc3)n(C3(C)CC3)c3ncnc(N)c23)cc1 [Example 148, 4-amino-6-(4-hydroxyphenyl)-N-(4-(methoxymethyl)phenyl)-7-(1-methylcyclopropyl)-7H-pyrrolo[2,3-d]pyrimidine-5-carboxamide]	61
COCc1ccc(NC(=O)c2c(C#Cc3ccc[nH]3)n(C3(C)CC3)c3ncnc(N)c23)cc1 [Example 161, 6-((1H-pyrrol-2-yl)ethynyl)-4-amino-N-(4-(methoxymethyl)phenyl)-7-(1-methylcyclopropyl)-7H-pyrrolo[2,3-d]pyrimidine-5-carboxamide]	68
COCc1ccc(NC(=O)c2c(OC[C@@H]3CCCO3)n(C3(C)CC3)c3ncnc(N)c23)cc1 [Example 97, (S)-4-amino-N-(4-(methoxymethyl)phenyl)-7-(1-methylcyclopropyl)-6-((tetrahydrofuran-2-yl)methoxy)-7H-pyrrolo[2,3-d] pyrimidine-5-carboxamide]	70
COCc1ccc(NC(=O)c2c(C#Cc3cccc(NCc4ccncc4)c3)n(C3(C)CC3)c3ncnc(N)c23)cc1 [Example 122, 4-amino-N-(4-(methoxymethyl)phenyl)-7-(1-methylcyclopropyl)-6-((3-((pyridin-4-ylmethyl)amino)phenyl)ethynyl)-7H-pyrrolo[2,3-d]pyrimidine-5-carboxamide]	62
COCc1ccc(NC(=O)c2c(C#Cc3ccc(OC)nc3)n(C3(C)CC3)c3ncnc(N)c23)cc1 [Example 192, 4-amino-N-(4-(methoxymethyl)phenyl)-6-((6-methoxypyridin-3-yl)ethynyl)-7-(1-methylcyclopropyl)-7H-pyrrolo[2,3-d]pyrimidine-5-carboxamide]	79
COCc1ccc(NC(=O)c2c(C#CCC(C)O)n(C3(C)CC3)c3ncnc(N)c23)cc1 (stereo not shown) [Example 188, 4-amino-6-(4-hydroxypent-1-yn-1-yl)-N-(4-(methoxymethyl)phenyl)-7-(1-methylcyclopropyl)-7H-pyrrolo[2,3-d]pyrimidine-5-carboxamide]	68
COCc1ccc(NC(=O)c2c(OCC3CCOC3)n(C3(C)CC3)c3ncnc(N)c23)cc1 (stereo not shown) [Example 101, 4-amino-N-(4-(methoxymethyl)phenyl)-7-(1methylcyclopropyl)-6-((tetrahydrofuran-3-yl)methoxy)-7H-pyrrolo[2,3-d]pyrimidine-5-carboxamide]	68
COCc1ccc(NC(=O)c2c(-c3ccccc3)n(C3(C)CC3)c3ncnc(N)c23)cc1 [Example 154, 4-amino-N-(4-(methoxymethyl)phenyl)-7-(1-methylcyclopropyl)-6-phenyl-7H-pyrrolo[2,3-d]pyrimidine-5-carboxamide]	50
CCOc1c(C(=O)Nc2ccc(-c3ccco3)cc2)c2c(N)ncnc2n1C1(C)CC1 [Example 116, 4-amino-6-ethoxy-N-(4-(furan-2-yl)phenyl)-7-(1-methylcyclopropyl)-7H-pyrrolo[2,3-d]pyrimidine-5-carboxamide]	55
COCc1ccc(NC(=O)c2c(-c3ccc(CO)cc3)n(C3(C)CC3)c3ncnc(N)c23)cc1 [Example 145, 4-amino-6-(4-(hydroxymethyl)phenyl)-N-(4-(methoxymethyl)phenyl)-7-(1-methylcyclopropyl)-7H-pyrrolo[2,3-d]pyrimidine-5-carboxamide]	72
COCc1ccc(NC(=O)c2cn(C(C)(C)CF)c3ncnc(N)c23)cc1F [Example 41, 4-amino-7-(1-fluoro-2-methylpropan-2-yl)-N-(3-fluoro-4-(methoxymethyl)phenyl)-7H-pyrrolo[2,3-d]pyrimidine-5-carboxamide]	56
COCc1ccc(NC(=O)c2c(C#Cc3ccn[nH]3)n(C3(C)CC3)c3ncnc(N)c23)cc1 [Example 129, 6-((1H-pyrazol-5-yl)ethynyl)-4-amino-N-(4-(methoxymethyl)phenyl)-7-(1-methylcyclopropyl)-7H-pyrrolo[2,3-d]pyrimidine-5-carboxamide]	54
COCc1ccc(NC(=O)c2c(C#CCC3NC(=O)NC3=O)n(C3(C)CC3)c3ncnc(N)c23)cc1 (stereo not shown) [Example 156, 4-amino-6-(3-(2,5-dioxoimidazolidin-4-yl)prop-1-yn-1-yl)-N-(4-(methoxymethyl)phenyl)-7-(1-methylcyclopropyl)-7H-pyrrolo[2,3-d]pyrimidine-5-carboxamide]	67
COCc1ccc(NC(=O)c2c(-c3cn[nH]c3)n(C3(C)CC3)c3ncnc(N)c23)cc1 [Example 167, 4-amino-N-(4-(methoxymethyl)phenyl)-7-(1-methylcyclopropyl)-6-(1H-pyrazol-4-yl)-7H-pyrrolo[2,3-d]pyrimidine-5-carboxamide]	80
COCc1ccc(NC(=O)c2c(C#Cc3cccs3)n(C3(C)CC3)c3ncnc(N)c23)cc1 [Example 119, 4-amino-N-(4-(methoxymethyl)phenyl)-7-(1-methylcyclopropyl)-6-(thiophen-2-ylethynyl)-7H-pyrrolo[2,3-d]pyrimidine-5-carboxamide]	70
COCc1ccc(NC(=O)c2cn(C(C)(C)C(F)F)c3ncnc(N)c23)cc1 [Example 50, 4-amino-7-(1,1-difluoro-2-methylpropan-2-yl)-N-(4-(methoxymethyl)phenyl)-7H-pyrrolo[2,3-d]pyrimidine-5-carboxamide]	53
COCc1ccc(NC(=O)c2c(C#CCN3CCCCC3)n(C3(C)CC3)c3ncnc(N)c23)cc1 [Example 105, 4-amino-N-[4-(methoxymethyl)phenyl]-7-(1-methylcyclopropyl)-6-(3-(piperidin-1-yl)prop-1-yn-1-yl)-7H-pyrrolo[2,3-d]pyrimidine-5-carboxamide]	52
COCc1ccc(NC(=O)c2c(OCC3CCCCO3)n(C3(C)CC3)c3ncnc(N)c23)cc1 (stereo not shown) [Example 102, 4-amino-N-(4-(methoxymethyl)phenyl)-7-(1-methylcyclopropyl)-6-((tetrahydro-2H-pyran-2-yl)methoxy)-7H-pyrrolo[2,3-d]pyrimidine-5-carboxamide]	60
COCc1ccc(NC(=O)c2c(C#Cc3cncc(C#N)c3)n(C3(C)CC3)c3ncnc(N)c23)cc1 [Example 195, 4-amino-6-((5-cyanopyridin-3-yl)ethynyl)-N-(4-(methoxymethyl)phenyl)-7-(1-methylcyclopropyl)-7H-pyrrolo[2,3-d]pyrimidine-5-carboxamide]	70

Now from value to molecule:

Remaining (%)	Compound
61	COCc1ccc(NC(=O)c2c(C#Cc3ccccn3)n(C3(C)CC3)c3ncnc(N)c23)cc1 [Example 172, 4-amino-N-[4-(methoxymethyl)phenyl]-7-(1-methylcyclopropyl)-6-(pyridin-2-ylethynyl)-7H-pyrrolo[2,3-d]pyrimidine-5-carboxamide]
60	COCc1ccc(NC(=O)c2cn(C(C)(C)CF)c3ncnc(N)c23)cc1 [Example 26, 4-amino-7-(1-fluoro-2-methylpropan-2-yl)-N-(4-(methoxymethyl)phenyl)-7H-pyrrolo[2,3-d]pyrimidine-5-carboxamide]
78	COCc1ccc(NC(=O)c2c(OCCN3CCCC3=O)n(C3(C)CC3)c3ncnc(N)c23)cc1 [Example 136, 4-amino-N-(4-(methoxymethyl)phenyl)-7-(1-methylcyclopropyl)-6-(2-(2-oxopyrrolidin-1-yl)ethoxy)-7H-pyrrolo[2,3-d]pyrimidine-5-carboxamide]
0	Nc1ncnc2c1c(C(=O)Nc1ccc(Oc3ccccc3)cc1)cn2C1CCCC1 [Compound 2 of Comparative Examples, 4-amino-7-cyclopentyl-N-(4-phenoxyphenyl)-7H-pyrrolo[2,3-d]pyrimidine-5-carboxamide, reference compound]
62	COCc1ccc(NC(=O)c2c(C#Cc3cn(C)nc3C)n(C3(C)CC3)c3ncnc(N)c23)cc1 [Example 181, 4-amino-6-((1,3-dimethyl-1H-pyrazol-4-yl)ethynyl)-N-(4-(methoxymethyl)phenyl)-7-(1-methylcyclopropyl)-7H-pyrrolo[2,3-d]pyrimidine-5-carboxamide]
52	COCCN(C)CC#Cc1c(C(=O)Nc2ccc(COC)cc2)c2c(N)ncnc2n1C1(C)CC1 [Example 197, 4-amino-6-(3-((2-methoxyethyl)(methyl)amino)prob-1-yn-1-yl)-N-(4-(methoxymethyl)phenyl)-7-(1-methylcyclopropyl)-7H-pyrrolo[2,3-d]pyrimidine-5-carboxamide]
70	CCOc1c(C(=O)Nc2ccc(COC)cc2)c2c(N)ncnc2n1C1(C)CC1 [Example 127, 4-amino-6-ethoxy-N-(4-(methoxymethyl)phenyl)-7-(1-methylcyclopropyl)-7H-pyrrolo[2,3-d]pyrimidine-5-carboxamide]
76	COCc1ccc(NC(=O)c2c(OCC(C)OC)n(C3(C)CC3)c3ncnc(N)c23)cc1 (stereo not shown) [Example 100, 4-amino-N-(4(methoxymethyl)phenyl)-6-(2-methoxypropoxy)-7-(1-methylcyclopropyl)-7H-pyrrolo[2,3-d]pyrimidine-5-carboxamide]
66	COCc1ccc(NC(=O)c2c(C#Cc3cncc(F)c3)n(C3(C)CC3)c3ncnc(N)c23)cc1 [Example 175, 4-amino-6-((5-fluoropyridin-3-yl)ethynyl)-N-(4-(methoxymethyl)phenyl)-7-(1-methylcyclopropyl)-7H-pyrrolo[2,3-d]pyrimidine-5-carboxamide]
74	COCc1ccc(NC(=O)c2c(C#CCC3(O)COC3)n(C3(C)CC3)c3ncnc(N)c23)cc1 [Example 125, 4-amino-6-(3-(3-hydroxyoxetan-3-yl)prop-1-yn-1-yl)-N-(4-(methoxymethyl)phenyl)-7-(1-methylcyclopropyl)-7H-pyrrolo[2,3-d]pyrimidine-5-carboxamide]

Same assay, conditions: mouse liver microsome, 1 μM, 37° C., 30 minutes

percentage of the remaining test compounds (remaining %) [%]	Compound
0	Nc1ncnc2c1c(C(=O)Nc1ccc(Oc3ccccc3)cc1)cn2C1CCCC1 [Compound 2 of Comparative Examples, 4-amino-7-cyclopentyl-N-(4-phenoxyphenyl)-7H-pyrrolo[2,3-d]pyrimidine-5-carboxamide, reference compound]
